Laboratory results taken from US20230175029A1, “ENZYME CASCADES BASED ON SUCROSE SYNTHASE AND PYROPHO[…] CONVERSION OF ADP TO ATP” (RHEINISCH-WE[…]-NISCHE HOCHSCHULE (RWTH) AACHEN, priority 2020, published 2023).

Legend:
EcAGPase [1] = molecular target: T1, EcAGPase (Escherichia coli, UniProt P0A6V1); assay: Influence of Fru-1,6-P2 concentration on activity of EcAGPase; assay type: biochemical, E. coli; set-up: His6; made in house; host or cells: E. coli BL21 (DE3), vector pET22b; details: for EcAGPase activity: 3 mM ADP-Glc, 3 mM PPi, pH 8, 37° C.
T1 sequence (P0A6V1 whole entry): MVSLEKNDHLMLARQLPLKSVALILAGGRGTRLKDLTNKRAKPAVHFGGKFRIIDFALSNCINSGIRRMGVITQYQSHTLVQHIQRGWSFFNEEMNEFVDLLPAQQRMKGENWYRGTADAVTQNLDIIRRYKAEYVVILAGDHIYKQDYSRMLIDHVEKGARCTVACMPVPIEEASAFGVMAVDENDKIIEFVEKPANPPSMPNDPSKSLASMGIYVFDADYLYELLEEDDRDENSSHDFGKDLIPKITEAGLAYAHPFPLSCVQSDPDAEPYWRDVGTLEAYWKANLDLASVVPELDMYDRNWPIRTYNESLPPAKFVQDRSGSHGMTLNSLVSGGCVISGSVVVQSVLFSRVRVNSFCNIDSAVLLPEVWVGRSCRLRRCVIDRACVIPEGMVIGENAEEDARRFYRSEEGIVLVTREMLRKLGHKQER
Description: Fru-1,6-P2 was used as an activator for EcAGPase. It is Fru-1,6-P2 a relatively expensive compound and its use in the EcAGPase reaction should be reduced as much as possible. Therefore, the activity of EcAGPase was investigated for different Fru-1,6-P2 concentrations to determine a minimum concentration of the activator.
The experiment included 3.9 μg/mL EcAGPase, 3 mM ADP-Glc, 3 mM PPi, 10 mM MgCl2 and Fru-1,6-P2 at concentrations ranging from 0.1 mM to 1 mM, as well as a control reaction without Fru-1,6-P2.

EcAGPase [2] = molecular target: T1, EcAGPase; assay: Effect of Glc-1-P on ATP synthesis activity of EcAGPase; assay type: biochemical, E. coli; set-up: His6; made in house; host or cells: E. coli BL21 (DE3), vector pET22b; details: 3 mM ADP-Glc, 3 mM PPi
Source text: The EcAGPase prefers the ADP-Glc synthesis. Thus, the accumulation of Glc-1-P negatively affects the reaction equilibrium for ATP synthesis. Therefore, the effect of Glc-1-P on the ATP synthesis activity of EcAGPase was investigated.

EcAGPase [3] = molecular target: T1, EcAGPase; details: 2.5 mM ADP-Glc, 1 mM Fru-1,6-P2, pH 8, 37° C.
Description: The influence of PPi concentrations on the ATP synthesis activity of the EcAGPase used was investigated.
The experiment included 4.35 μg/mL EcAGPase, 2.5 mM ADP-Glc, 10 mM MgCl2, 1 mM Fru-1,6-P2 and PPi, at concentrations ranging from 0.75 mM to 10 mM, and a control reaction without PPi. ATP synthesis was performed in 600 μL of 100 mM HEPES buffer, pH 8 at 37° C. for 12 min. The synthesis was stopped at the respective measurement points with 28 mM SDS (final concentration 7 mM) and the analysis of the nucleotides (ADP-Glc, AMP, ADP, ATP) was performed by multiplex capillary electrophoresis (internal standards (final concentrations): 1 mM para-aminobenzoic acid and 1 mM 4-aminophthalic acid) and the analytes were detected at 254 nm.

Question: What does the source list for O=C(COP(=O)(O)O)[C@@H](O)[C@H](O)[C@H](O)COP(=O)(O)O [Fru-1,6-P2, fructose-1,6-bisphosphate]?
Answer: EcAGPase activity (EcAGPase [1]; 0.25 mM Fru-1,6-P2): 20 U/mg; EcAGPase activity, fold higher than without activator (EcAGPase [1]; 0.5 mM Fru-1,6-P2): 12 fold; EcAGPase activity (EcAGPase [1]; 0.5 mM Fru-1,6-P2): 60 U/mg

Question: Which “activity of the enzyme relative to activity without addition of Glc-1-P” value (EcAGPase [2]; 1 mM Glc-1-P, 0.5 mM Fru-1,6-P2) does the source give for O=P(O)(O)O[C@H]1O[C@H](CO)[C@@H](O)[C@H](O)[C@H]1O [Glc-1-P, glucose-1-phosphate] here?
Answer: 71%

Question: And the IC50 (EcAGPase [2]; 0.5 mM Fru-1,6-P2, pH 8, 37° C.)?
Answer: 1.78 mM

Question: And the residual activity (EcAGPase [2]; 5 mM Glc-1-P, 0.5 mM Fru-1,6-P2)?
Answer: 27%

Question: Which “PPi concentration at which EcAGPase shows a reduction in specific activity” value (EcAGPase [3]) does the source give for O=P(O)(O)OP(=O)(O)O [PPi, inorganic pyrophosphate] here?
Answer: above 3 mM

Question: And the “specific activity of EcAGPase” value (EcAGPase [3]; 7 mM PPi)?
Answer: 0.6 U/mg
